“And” between values parts separate entries of the source, which are not always exact repeats. Equal entries are not always repeated. Where two headings read alike, the source gives them in different places. One block for each compound: values may come before it.
Columns and labels:
[1] = system: HeLa cells; experiment: Cell antiproliferative activity assay (CCK8); assay type: cell-based, human; details: for inhibition at 0.25 µM: 250 nM; for inhibition at 0.5 µM: 500 nM; for inhibition at 1 µM: 1000 nM; for inhibition at 2 µM: 2000 nM; for inhibition at 4 µM: 4000 nM; for inhibition at 8 µM: 8000 nM; for inhibition at 16 µM: 16000 nM
Method: Cell antiproliferative activity was evaluated by the Cell Counting Kit-8 (CCK8, DOJINDO, Japan) assay. The cells were seeded at a density of 2,000 cells per well into 96-well microplate in 100 μl of growth medium. Cells were incubated at 37°C and 5% CO2 overnight. The next day, 100 μl per well of diluted inhibitor in growth medium was added with the final concentration from 0.1 nM to 100 μM. The cells were treated with DMSO as control. A series of dilutions are made in 0.1% DMSO in assay medium so that the final concentration of DMSO is 0.1% in all of treatments. Cells were incubated at 37°C and 5% CO2 for 48 h. Then, 10 μl of CCK8 was added to each well. The plates were incubated at 37°C for 2 h; after that, the plates were recorded by measuring absorbance at 450 nm with the reference wavelength of 630 nm using an EnVision Multilabel Reader (PerkinElmer). The IC50 values were calculated using GraphPad Prism 6.0 software and determined by the concentration causing a half-maximal percent activity. All assays were conducted with three parallel samples and three repetitions.

[2] = system: HeLa cells; experiment: Flow cytometry detection for cell apoptosis (Annexin V/PI); assay type: cell-based, human; details: for Q1 (flow cytometry quadrant, Figure 4A) / Q4 (flow cytometry quadrant, Figure 4A) / Q2: FITC-A+ , PE-A+ Freq. of Parent / Q3: FITC-A+ , PE-A- Freq. of Parent: Annexin V/PI; for Q2: FITC-A+ , PE-A+ Freq. of Parent / Q3: FITC-A+ , PE-A- Freq. of Parent / Q2+Q3 (column without head, sum on percent scale): single samples
Method: Cell-apoptosis analysis was carried out by flow cytometry using the Annexin V/PI apoptosis kit (Solarbio, China) according to the manufacturer’s manual. Briefly, HeLa (5 × 10^4/well) cells were seeded in 12-well plates for 24 h and then treated with 0.1% DMSO (as control) or various concentrations of compounds 4d, 4k, and 4l for 72 h, respectively. Cells were harvested, washed with PBS, and then incubated with 100 μl of 1 × Annexin V binding buffer containing 1 μl FITC Annexin V for 10 min at RT in the dark. Cells were incubated for another 5 min at room temperature (RT) in the dark after 1 μl PI was added. PBS (200 µl) was added to each tube for flow cytometry analysis (BriCyte E6). The percentages of apoptotic cells were analyzed using FlowJo soft.

[3] = system: HeLa cells; experiment: Colony formation assay; assay type: cell-based, human
Method: HeLa cells were seeded in six-well plates at the density of 500/well for 24 h, and then treated with 0.1% DMSO (as control), various concentrations of compounds 4d, 4k, and 4l, respectively. The cells were incubated for 2 weeks in a 5% CO2 environment at 37°C for colony formation. The media was gently removed from each of the plates, and then each plate was washed with PBS twice. The colonies were fixed with 4% polyformaldehyde for 10 min and then wash the cells with ddH2O twice. Stain with 1 ml Crystal Violet Staining Solution (Beyotime, China) for 10 min. Wash excess crystal violet with ddH2O and allow dishes to dry. Take pictures of the plate and count the colonies.

[4] = system: HeLa cells; experiment: Flow cytometry detection for cell cycle; assay type: cell-based, human; details: 6 μM, 48 h
Method: HeLa (5 × 10^4/well) cells were seeded in 12-well plates for 24 h and then treated with 0.1% DMSO (as control), compounds 4d, 4k, and 4l of various concentrations for 48 h, respectively. The treated cells were harvested, washed with PBS, and then stained using the cell-cycle staining kit [Multisciences (Lianke) Biotech] according to the manufacturer’s manual. The distribution of cell-cycle phases with different DNA contents was determined by flow cytometry (BriCyte E6) and analyzed using ModFit LT software.

[5] = HeLa cells, CCK8, 48 h, mean ± SD, n = 3, read-out: IC50 (μM) HeLa
[6] = Homo sapiens, HeLa, 48 h, HeLa cells, CCK8, 48 h, mean ± SD, n = 3, read-out: IC50 (μM) HeLa
[7] = Homo sapiens, HeLa, HELA 2000cells/well, supplement DataSheet2, Repeat1, read-out: IC50 Repeat1
[8] = Homo sapiens, HeLa, HELA 2000cells/well, supplement DataSheet2, Repeat 2, read-out: IC50 Repeat 2
[9] = Homo sapiens, HeLa, HELA 2000cells/well, supplement DataSheet2, mean of two repeats ± SD, read-out: IC50 mean±SD
[10] = Homo sapiens, HELA 2000cells/well, Repeat1, read-out: Inhibition (%) Repeat1
[11] = Homo sapiens, HELA 2000cells/well, Repeat2, read-out: Inhibition (%) Repeat2

IC50 [1, 5]: 4.51 ± 0.08 µM
IC50 [1, 6]: 4.36 µM
IC50 [1, 7]: 4.41 µM
IC50 [1, 8]: 4.58 µM
IC50 [1, 9]: 4.51 ± 0.083 µM
melting point: 95 to 98 °C
Structure (SMILES): COCCOc1cc2ncnc(Nc3cccc(-c4cn(-c5ccc(C)cc5)nn4)c3)c2cc1OCCOC [Compound 4l, [6,7-Bis-(2-methoxy-ethoxy)-quinazolin-4-yl]-[3-(1-p-tolyl-1H-[1,2,3]triazol-4-yl)-phenyl]-amine]
inhibition at 0.25 µM [1, 10]: 2.96%
inhibition at 0.25 µM [1, 11]: 0%
inhibition at 0.5 µM [1, 10]: 5.57%
inhibition at 0.5 µM [1, 11]: 0.522%
inhibition at 1 µM [1, 10]: 8.62%
inhibition at 1 µM [1, 11]: 4.7%
inhibition at 2 µM [1, 10]: 12.6%
inhibition at 2 µM [1, 11]: 6.88%
inhibition at 4 µM [1, 10]: 37.2%
inhibition at 4 µM [1, 11]: 32%
inhibition at 8 µM [1, 10]: 96.7%
inhibition at 8 µM [1, 11]: 96.9%
inhibition at 16 µM [1, 10]: 99%
inhibition at 16 µM [1, 11]: 98.9%
Q1 (flow cytometry quadrant, Figure 4A) ([2]; 3 μM, 72 h): 3.78%
Q4 (flow cytometry quadrant, Figure 4A) ([2]; 3 μM, 72 h): 84.8%
Q2: FITC-A+ , PE-A+ Freq. of Parent ([2]; 3 μM, 72 h): 9.69%
Q3: FITC-A+ , PE-A- Freq. of Parent ([2]; 3 μM, 72 h): 1.71%
Q2: FITC-A+ , PE-A+ Freq. of Parent ([2]; 3 μM, 72 h, listed as e12): 9.69% and 6.86% and 8.36%
Q3: FITC-A+ , PE-A- Freq. of Parent ([2]; 3 μM, 72 h, listed as e12): 1.71% and 1.25% and 0.95%
Q2+Q3 (column without head, sum on percent scale) ([2]; 3 μM, listed as e12): 11.4 and 8.11 and 9.31
Q1 (flow cytometry quadrant, Figure 4A) ([2]; 6 μM, 72 h): 3.76%
Q4 (flow cytometry quadrant, Figure 4A) ([2]; 6 μM, 72 h): 83.5%
Q2: FITC-A+ , PE-A+ Freq. of Parent ([2]; 6 μM, 72 h): 11.1%
Q3: FITC-A+ , PE-A- Freq. of Parent ([2]; 6 μM, 72 h): 1.72%
Q2: FITC-A+ , PE-A+ Freq. of Parent ([2]; 6 μM, 72 h, listed as e12): 8.62% and 11.1% and 7.43%
Q3: FITC-A+ , PE-A- Freq. of Parent ([2]; 6 μM, 72 h, listed as e12): 1.73% and 1.72% and 1.32%
Q2+Q3 (column without head, sum on percent scale) ([2]; 6 μM, listed as e12): 10.35 and 12.82 and 8.75
Q1 (flow cytometry quadrant, Figure 4A) ([2]; 12 μM, 72 h): 4.50%
Q4 (flow cytometry quadrant, Figure 4A) ([2]; 12 μM, 72 h): 78.5%
Q2: FITC-A+ , PE-A+ Freq. of Parent ([2]; 12 μM, 72 h): 14.1%
Q3: FITC-A+ , PE-A- Freq. of Parent ([2]; 12 μM, 72 h): 2.91%
Q2: FITC-A+ , PE-A+ Freq. of Parent ([2]; 12 μM, 72 h, listed as e12): 14.8% and 14.1% and 12.5%
Q3: FITC-A+ , PE-A- Freq. of Parent ([2]; 12 μM, 72 h, listed as e12): 2.43% and 2.91% and 2.33%
cell apoptosis in HeLa cells, percentage ([2]; 12 μM, 72 h, three independent experiments): 16.36%
Q2+Q3 (column without head, sum on percent scale) ([2]; 12 μM, listed as e12): 17.23 and 17.01 and 14.83
Number of Colonies /well ([3]; 6 uM, repeats 1-3): 291 and 246 and 217
effect on cell colony formation ([3]; 12 μM, 2 weeks): entirely inhibited

IC50 [1, 5]: 4.16 ± 0.48 µM
IC50 [1, 6]: 3.79 µM
IC50 [1, 7]: 3.72 µM
IC50 [1, 8]: 4.68 µM
IC50 [1, 9]: 4.16 ± 0.481 µM
melting point: 87 to 90 °C
Structure (SMILES): COCCOc1cc2ncnc(Nc3cccc(-c4cn(-c5ccccc5OC)nn4)c3)c2cc1OCCOC [Compound 4k, [6,7-Bis-(2-methoxy-ethoxy)-quinazolin-4-yl]-{3-[1-(2-methoxy-phenyl)-1H-[1,2,3]triazol-4-yl]-phenyl}-amine]
inhibition at 0.25 µM [1, 10]: 3.39%
inhibition at 0.25 µM [1, 11]: 0%
inhibition at 0.5 µM [1, 10]: 4.2%
inhibition at 0.5 µM [1, 11]: 6.96%
inhibition at 1 µM [1, 10]: 8.3%
inhibition at 1 µM [1, 11]: 7.05%
inhibition at 2 µM [1, 10]: 22.3%
inhibition at 2 µM [1, 11]: 10.7%
inhibition at 4 µM [1, 10]: 48.8%
inhibition at 4 µM [1, 11]: 43.1%
inhibition at 8 µM [1, 10]: 90.1%
inhibition at 8 µM [1, 11]: 73.9%
inhibition at 16 µM [1, 10]: 96.8%
inhibition at 16 µM [1, 11]: 97%
Q1 (flow cytometry quadrant, Figure 4A) ([2]; 3 μM, 72 h): 2.64%
Q4 (flow cytometry quadrant, Figure 4A) ([2]; 3 μM, 72 h): 93.0%
Q2: FITC-A+ , PE-A+ Freq. of Parent ([2]; 3 μM, 72 h): 3.63%
Q3: FITC-A+ , PE-A- Freq. of Parent ([2]; 3 μM, 72 h): 0.75%
Q1 (flow cytometry quadrant, Figure 4A) ([2]; 6 μM, 72 h): 8.66%
Q4 (flow cytometry quadrant, Figure 4A) ([2]; 6 μM, 72 h): 64.2%
Q2: FITC-A+ , PE-A+ Freq. of Parent ([2]; 6 μM, 72 h): 21.9%
Q3: FITC-A+ , PE-A- Freq. of Parent ([2]; 6 μM, 72 h): 5.30%
Q1 (flow cytometry quadrant, Figure 4A) ([2]; 12 μM, 72 h): 24.0%
Q4 (flow cytometry quadrant, Figure 4A) ([2]; 12 μM, 72 h): 11.6%
Q2: FITC-A+ , PE-A+ Freq. of Parent ([2]; 12 μM, 72 h): 61.9%
Q3: FITC-A+ , PE-A- Freq. of Parent ([2]; 12 μM, 72 h): 2.53%
cell cycle phase at which HeLa cells were arrested [4]: both G0/G1 and G2/M

From publication PMC8802806, “Synthesis and Antitumor Activity of Erlotinib Derivatives Linked With 1,2,3-Triazole” (Frontiers in Pharmacology, 2022)
